Experimental data from the supplement of paper PMC10627819.

How the values were obtained:
Conditions in all cases: main component drawn
S. pneumoniae D39V [1] = test: fitness (endpoint OD595 vs no drug) (fraction); higher = more growth
In short: (§1)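 Fitness compares growth at the stationary-phase transition with the robust mean of no-drug control wells, as a ratio of optical densities. The ratio is capped at 1. Wells of 384-well plates held 30 µl, or 55 µl for S. pneumoniae, inoculated at OD595 0.01. Readings at OD595 every 30 min for 14 h at 37 °C were corrected against the first reading.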

B. subtilis 168 [2] = test: as above
In short: as §1

S. aureus DSM 20231 = test: Bliss interaction score (quartile over a dose matrix) (fitness difference); higher = more antagonism (negative = synergy)
In short: (§2)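 Quartiles of the Bliss score were taken over technical, biological and donor/recipient replicates. That score is observed fitness minus the product of the single-drug fitness values, which were inferred from combination data. Fitness itself is OD595 at entry into stationary phase divided by the plate's robust no-drug mean, with a cap at 1.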

S. pneumoniae D39V [3] = test: as above
In short: as §2

S. aureus Newman [4] = test: as above
In short: as §2

B. subtilis 168 [5] = test: as above
In short: as §2

S. aureus Newman [6] = test: fitness (endpoint OD595 vs no drug) (fraction); higher = more growth
In short: as §1
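Throughout, for Bliss interaction score (quartile over a dose matrix): first quartile when negative (synergy) and third quartile when positive (antagonism).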

CNC(C)C1CCC(N)C(OC2C(N)CC(N)C(OC3OCC(C)(O)C(NC)C3O)C2O)O1 (stereo unspecified) [Gentamicin] + CC(=O)NC[C@H]1CN(c2ccc(N3CCOCC3)c(F)c2)C(=O)O1 [Linezolid]
fitness, S. pneumoniae D39V [1]
Conditions | partner 0.105 µg/mL | partner 0.2 µg/mL | partner 0.21 µg/mL | partner 0.4 µg/mL | partner 0.42 µg/mL | partner 0.8 µg/mL
first compound 2 µg/mL | 0.881 | 0.414 | 0.767 | 0.228 | 0.636 | 0.0665
first compound 4 µg/mL | 0.908 | 0.408 | 0.759 | 0.215 | 0.6 | 0.0715
first compound 8 µg/mL | 0.843 | 0.37 | 0.758 | 0.212 | 0.579 | 0.0595

B. subtilis 168 [2], partner 0.0625 µg/mL, one replicate
Conditions | fitness
first compound 0.0625 µg/mL | 0.827
first compound 0.125 µg/mL | 0.0748
first compound 0.25 µg/mL | 0.0626

Conditions | Bliss interaction score
B. subtilis 168 [5] | 0.144
S. aureus DSM 20231 | 0.0779
S. aureus Newman [4] | 0.0901
S. pneumoniae D39V [3] | -0.136

CNC(C)C1CCC(N)C(OC2C(N)CC(N)C(OC3OCC(C)(O)C(NC)C3O)C2O)O1 (stereo unspecified) [Gentamicin] + CCC(C)C1C(=O)NC(=C)C(=O)NC(C(=O)NC(CSCC(C(=O)N1)NC(=O)/C(=C/C)/NC(=O)C(C(C)CC)N)C(=O)NC2C(SCC(NC(=O)CNC(=O)C3CCCN3C2=O)C(=O)NC(CCCCN)C(=O)NC4C(SCC(NC(=O)CNC(=O)C(NC(=O)C(NC(=O)C(NC(=O)CNC4=O)C)CC(C)C)CCSC)C(=O)NC(CC(=O)N)C(=O)NC(CCSC)C(=O)NC(CCCCN)C(=O)NC5C(SCC6C(=O)NC(C(=O)NC(CSC(C(C(=O)N6)NC(=O)C(NC5=O)C)C)C(=O)NC(CO)C(=O)NC(C(C)CC)C(=O)NC(CC7=CN=CN7)C(=O)NC(C(C)C)C(=O)NC(=C)C(=O)NC(CCCCN)C(=O)O)CC8=CN=CN8)C)C)C)CC(C)C [Nisin]
Conditions | fitness
B. subtilis 168 [2], first compound 0.0625 µg/mL, partner 0.5 µg/mL | 0.865
B. subtilis 168 [2], first compound 0.0625 µg/mL, partner 1 µg/mL | 0.793
B. subtilis 168 [2], first compound 0.125 µg/mL, partner 0.5 µg/mL | 0.768
B. subtilis 168 [2], first compound 0.125 µg/mL, partner 2 µg/mL | 0.213
B. subtilis 168 [2], first compound 0.25 µg/mL, partner 0.5 µg/mL | 0.27
B. subtilis 168 [2], first compound 0.25 µg/mL, partner 1 µg/mL | 0.102
B. subtilis 168 [2], first compound 0.25 µg/mL, partner 2 µg/mL | 0.057
S. pneumoniae D39V [1], first compound 2 µg/mL, partner 0.4275 µg/mL | 0.957
S. pneumoniae D39V [1], first compound 2 µg/mL, partner 0.855 µg/mL | ≥ 1
S. pneumoniae D39V [1], first compound 2 µg/mL, partner 1.6 µg/mL | 0.0179
S. pneumoniae D39V [1], first compound 2 µg/mL, partner 1.71 µg/mL | 0.0948
S. pneumoniae D39V [1], first compound 2 µg/mL, partner 3.2 µg/mL | 0.0145
S. pneumoniae D39V [1], first compound 2 µg/mL, partner 6.4 µg/mL | 0.0183
S. pneumoniae D39V [1], first compound 4 µg/mL, partner 0.4275 µg/mL | 0.999
S. pneumoniae D39V [1], first compound 4 µg/mL, partner 0.855 µg/mL | ≥ 1
S. pneumoniae D39V [1], first compound 4 µg/mL, partner 1.6 µg/mL | 0.0111
S. pneumoniae D39V [1], first compound 4 µg/mL, partner 1.71 µg/mL | 0.07
S. pneumoniae D39V [1], first compound 4 µg/mL, partner 3.2 µg/mL | 0.0177
S. pneumoniae D39V [1], first compound 4 µg/mL, partner 6.4 µg/mL | 0.0081
S. pneumoniae D39V [1], first compound 8 µg/mL, partner 0.4275 µg/mL | 0.99
S. pneumoniae D39V [1], first compound 8 µg/mL, partner 0.855 µg/mL | 0.986
S. pneumoniae D39V [1], first compound 8 µg/mL, partner 1.6 µg/mL | 0.0051
S. pneumoniae D39V [1], first compound 8 µg/mL, partner 1.71 µg/mL | 0.0917
S. pneumoniae D39V [1], first compound 8 µg/mL, partner 3.2 µg/mL | 0.0325
S. pneumoniae D39V [1], first compound 8 µg/mL, partner 6.4 µg/mL | 0.0106

fitness, B. subtilis 168 [2], one replicate
Conditions | partner 1.25 µg/mL | partner 1.6 µg/mL | partner 2.5 µg/mL | partner 3.2 µg/mL | partner 4 µg/mL | partner 5 µg/mL | partner 6.4 µg/mL | partner 8 µg/mL | partner 16 µg/mL
first compound 0.0625 µg/mL | 0.861 | 0.703 | 0.037 | 0.0387 | 0.0303 | 0.0263 | 0.0574 | 0.0215 | 0.0053
first compound 0.125 µg/mL | 0.378 | 0.504 | 0.0311 | 0.0535 | 0.0234 | 0.0338 | 0.0847 | 0.0224 | 0.0101
first compound 0.25 µg/mL | 0.078 | 0.0505 | 0.0563 | 0.0642 | 0.0357 | 0.0313 | 0.0596 | 0.0124 | 0.007

Conditions | Bliss interaction score
B. subtilis 168 [5] | -0.0796
S. aureus DSM 20231 | 0.227
S. aureus Newman [4] | 0.0431
S. pneumoniae D39V [3] | -0.0396

CNC(C)C1CCC(N)C(OC2C(N)CC(N)C(OC3OCC(C)(O)C(NC)C3O)C2O)O1 (stereo unspecified) [Gentamicin] + CCCCCCCCCC(=O)N[C@@H]1[C@H]([C@@H]([C@H](O[C@H]1OC2=C3C=C4C=C2OC5=C(C=C(C=C5)[C@H]([C@H]6C(=O)N[C@@H](C7=C(C(=CC(=C7)O)OC8[C@H]([C@H]([C@@H]([C@H](O8)CO)O)O)O)C9=C(C=CC(=C9)[C@H](C(=O)N6)NC(=O)[C@@H]4NC(=O)[C@@H]1C2=CC(=CC(=C2)OC2=C(C=CC(=C2)[C@H](C(=O)N[C@H](CC2=CC(=C(O3)C=C2)Cl)C(=O)N1)N)O)O)O)C(=O)O)O[C@H]1[C@@H]([C@H]([C@@H]([C@H](O1)CO)O)O)NC(=O)C)Cl)CO)O)O [Teicoplanin]
fitness, S. aureus Newman [6], one replicate
Conditions | first compound 0.375 µg/mL | first compound 0.75 µg/mL | first compound 1 µg/mL | first compound 1.5 µg/mL | first compound 2 µg/mL | first compound 4 µg/mL
partner 0.1562 µg/mL | ≥ 1 | ≥ 1 | – | ≥ 1 | – | –
partner 0.3125 µg/mL | ≥ 1 | ≥ 1 | – | ≥ 1 | – | –
partner 0.62 µg/mL | – | – | 0.748 | – | 0.37 | 0.0704
partner 0.625 µg/mL | 0.861 | 0.851 | – | 0.875 | – | –
partner 1.24 µg/mL | – | – | 0.616 | – | 0.0206 | 0.0307
partner 2.48 µg/mL | – | – | 0.0707 | – | 0.0793 | 0.0765

fitness, S. aureus Newman [6]
Conditions | first compound 0.5 µg/mL | first compound 1 µg/mL | first compound 2 µg/mL
partner 0.1562 µg/mL | ≥ 1 | ≥ 1 | ≥ 1
partner 0.3125 µg/mL | ≥ 1 | ≥ 1 | ≥ 1
partner 0.625 µg/mL | ≥ 1 | ≥ 1 | ≥ 1

Conditions | Bliss interaction score
B. subtilis 168 [5] | -0.13
S. aureus DSM 20231 | -0.0694
S. aureus Newman [4] | -0.0337
S. pneumoniae D39V [3] | 0.0694

CNC(C)C1CCC(N)C(OC2C(N)CC(N)C(OC3OCC(C)(O)C(NC)C3O)C2O)O1 (stereo unspecified) [Gentamicin] + CCC[C@@H]1C[C@@H](C(=O)N[C@@H]([C@H]2O[C@H](SC)[C@H](O)[C@@H](O)[C@H]2O)[C@@H](C)O)N(C)C1 [Lincomycin]
fitness
Conditions | partner 0.1 µg/mL | partner 0.2 µg/mL | partner 0.215 µg/mL | partner 0.4 µg/mL | partner 0.43 µg/mL | partner 0.8 µg/mL | partner 0.86 µg/mL
B. subtilis 168 [2], first compound 0.0625 µg/mL | 0.851 | 0.858 | – | 0.911 | – | – | –
B. subtilis 168 [2], first compound 0.25 µg/mL | 0.038 | 0.0459 | – | 0.121 | – | – | –
S. pneumoniae D39V [1], first compound 2 µg/mL | – | 0.465 | 0.858 | 0.285 | 0.795 | 0.0324 | 0.558
S. pneumoniae D39V [1], first compound 4 µg/mL | – | 0.455 | 0.843 | 0.257 | 0.716 | 0.0339 | 0.397
S. pneumoniae D39V [1], first compound 8 µg/mL | – | 0.389 | 0.834 | 0.212 | 0.741 | 0.0377 | 0.41

fitness, B. subtilis 168 [2], one replicate
Conditions | first compound 0.0625 µg/mL | first compound 0.125 µg/mL | first compound 0.25 µg/mL
partner 0.8 µg/mL | 0.989 | 0.881 | 0.32
partner 1.6 µg/mL | 0.921 | 0.895 | 0.367

Conditions | Bliss interaction score
B. subtilis 168 [5] | 0.1
S. aureus DSM 20231 | 0.106
S. aureus Newman [4] | 0.0735
S. pneumoniae D39V [3] | -0.0859
